Results as given in patent US10703764B2, “Benzopiperazine compositions as BET bromodomain inhibitors” (FORMA Therapeutics, Inc., priority 2013, dated 2020).
Like-named read-outs stand apart in the source and are kept apart here.

How the values were obtained:
[1] = target: T1, BRD4 BD1 (Homo sapiens, UniProt O60885); assay: AlphaScreen binding assay, BRD4 Bromodomain 1
T1 construct: made in house
Summary of the method: (§1)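 Compound dilution series were mixed with His-tagged BRD4 bromodomain and biotinylated tetra-acetylated H4 (1-21) peptide at pH 7.3 (BD1 and peptide at 50 nM, BD2 and peptide at 100 nM). Donor and acceptor beads were then added, and plates were equilibrated at least 1 h before reading. IC50 values were fitted with a four-parameter logistic model.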

[2] = target: T2, BRD4 BD2 (Homo sapiens, UniProt O60885); assay: AlphaScreen binding assay, BRD4 Bromodomain 2
T2 construct: made in house
Summary of the method: as §1

[3] = system: MV4-11 cells; assay: Oncology cell growth assay (3-day proliferation, CellTiter-Glo); format: cell-based; settings: Homo sapiens, AML cell line MV4-11, 72 hours, compounds grouped by IC50 range, read-out: MV4-11 IC50 (inhibition of proliferation, gIC50)
Summary of the method: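 MV4-11 AML cells (RPMI 1640, 10% FBS) plated at 3000 cells/well and exposed 72 h to compound at final 10 to 0.0045 μM (3-fold series). Viability read by CellTiter-Glo luminescence; gIC50 from four-parameter logistic fit between DMSO control and no-cell background.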

Row | IC50 [1] [nM] | IC50 [2] [nM] | IC50 ([3]; MV4-11, 72 h) [nM] | Structure (SMILES) | IC50 [3] [nM]
1 | 100 to 1000 | 50 to 500 | 100 to 500 | CC(=O)N1c2ccc(-c3cnn(C4CC4)c3)cc2N(C(=O)OC2CCC(F)(F)CC2)C[C@@H]1C [Example I-33, (S)-4,4-difluorocyclohexyl 4-acetyl-7-(1-cyclopropyl-1H-pyrazol-4-yl)-3-methyl-3,4-dihydroquinoxaline-1(2H)-carboxylate] | –
2 | 100 to 1000 | 50 to 500 | 100 to 500 | CC(=O)N1c2ccc(-c3cnn(CCO)c3)cc2N(C(=O)OC2CCC(F)(F)CC2)C[C@@H]1C [Example I-34, (S)-4,4-difluorocyclohexyl 4-acetyl-7-(1-(2-hydroxyethyl)-1H-pyrazol-4-yl)-3-methyl-3,4-dihydroquinoxaline-1(2H)-carboxylate] | –
3 | 100 to 1000 | 50 to 500 | 100 to 500 | CC(=O)N1c2ccc(-c3cnn(CC(C)(C)O)c3)cc2N(C(=O)OC2CCC(F)(F)CC2)C[C@@H]1C [Example I-35, (S)-4,4-difluorocyclohexyl 4-acetyl-7-(1-(2-hydroxy-2-methylpropyl)-1H-pyrazol-4-yl)-3-methyl-3,4-dihydroquinoxaline-1(2H)-carboxylate] | –
4 | 1000 to 10000 | 50 to 500 | 100 to 500 | CC(=O)N1c2ccc(-c3ccc(N4CCCS4(=O)=O)cc3)cc2N(C(=O)OC2CCC(F)(F)CC2)C[C@@H]1C [Example I-36, 4,4-difluorocyclohexyl (3S)-4-acetyl-7-[4-(1,1-dioxo-1λ^6,2-thiazolidin-2-yl)phenyl]-3-methyl-1,2,3,4-tetrahydroquinoxaline-1-carboxylate] | –
5 | 100 to 1000 | 50 to 500 | 100 to 500 | CC(=O)N1c2ccc(-c3cnn(C4CS(=O)(=O)C4)c3)cc2N(C(=O)OC2CCOCC2)C[C@@H]1C [Example I-37, oxan-4-yl (3S)-4-acetyl-7-[1-(1,1-dioxo-1λ^6-thietan-3-yl)-1H-pyrazol-4-yl]-3-methyl-1,2,3,4-tetrahydroquinoxaline-1-carboxylate] | –
6 | 100 to 1000 | 50 to 500 | 100 to 500 | CC(=O)N1c2ccc(-c3cnn(C4CCOCC4)c3)cc2N(C(=O)OC2CCOCC2)C[C@@H]1C [Example I-38, (S)-tetrahydro-2H-pyran-4-yl 4-acetyl-3-methyl-7-(1-(tetrahydro-2H-pyran-4-yl)-1H-pyrazol-4-yl)-3,4-dihydroquinoxaline-1(2H)-carboxylate] | –
7 | 100 to 1000 | < 50 | < 100 | CC(=O)N1c2ccc(-c3cnn(C4CCOCC4)c3)cc2N(C(=O)OC2CCC2)C[C@@H]1C [Example I-39, (S)-cyclobutyl 4-acetyl-3-methyl-7-(1-(tetrahydro-2H-pyran-4-yl)-1H-pyrazol-4-yl)-3,4-dihydroquinoxaline-1(2H)-carboxylate] | –
8 | 100 to 1000 | 50 to 500 | 100 to 500 | C[C@H]1CN(C(=O)OC2CCCC2)c2cc(-c3cnn(C4CC4)c3)ccc2N1C(=O)C1CC1 [Example I-41, (S)-cyclopentyl 4-(cyclopropanecarbonyl)-7-(1-cyclopropyl-1H-pyrazol-4-yl)-3-methyl-3,4-dihydroquinoxaline-1 (2H)-carboxylate] | –
9 | 100 to 1000 | 50 to 500 | > 500 | COC(=O)N1c2ccc(-c3cnn(C4CC4)c3)cc2N(C(=O)OC(C)C)C[C@@H]1C [Example I-43, (S)-4-isopropyl 1-methyl 6-(1-cyclopropyl-1H-pyrazol-4-yl)-2-methyl-2,3-dihydroquinoxaline-1,4-dicarboxylate] | –
10 | 100 to 1000 | 50 to 500 | 100 to 500 | CC(=O)N1c2ccc(-c3cnn(C4CC4)c3)cc2N(c2nc3ccccc3o2)C[C@@H]1C [Example I-44, (S)-1-(4-(benzo[d]oxazol-2-yl)-6-(1-cyclopropyl-1H-pyrazol-4-yl)-2-methyl-3,4-dihydroquinoxalin-1(2H)-yl)ethanone] | –
11 | 100 to 1000 | > 500 | 100 to 500 | CC(=O)N1c2ccc(-c3ccc(S(C)(=O)=O)cc3)cc2N(c2nc3ccccc3o2)C[C@@H]1C [Example I-46, (S)-1-(4-(benzo[d]oxazol-2-yl)-2-methyl-6-(4-(methylsulfonyl)phenyl)-3,4-dihydroquinoxalin-1(2H)-yl)ethanone] | –
12 | 100 to 1000 | 50 to 500 | 100 to 500 | CC(=O)N1c2ccc(-c3cnn(C4CC4)c3)cc2N(c2ncc3ccccc3n2)C[C@@H]1C [Example I-51, (S)-1-(6-(1-cyclopropyl-1H-pyrazol-4-yl)-2-methyl-4-(quinazolin-2-yl)-3,4-dihydroquinoxalin-1(2H)-yl)ethanone] | –
13 | 100 to 1000 | < 50 | < 100 | CC(=O)N1c2ccc(-c3cnn(C4CC4)c3)cc2N(c2nn(C)c3ccccc23)C[C@@H]1C [Example I-52, (S)-1-(6-(1-cyclopropyl-1H-pyrazol-4-yl)-2-methyl-4-(1-methyl-1H-indazol-3-yl)-3,4-dihydroquinoxalin-1(2H)-yl)ethanone] | –

The next lines start with the compound.

Row | Structure (SMILES) | IC50 [1] [nM] | IC50 [2] [nM] | IC50 ([3]; MV4-11, 72 h) [nM] | IC50 [3] [nM]
14 | CC(=O)N1c2ccc(-c3cnn(C4CC4)c3)cc2N(C(=O)OC(C)C)C[C@@H]1C [Example I-22, (S)-isopropyl 4-acetyl-7-(1-cyclopropyl-1H-pyrazol-4-yl)-3-methyl-3,4-dihydroquinoxaline-1(2H)-carboxylate] | 100 to 1000 | 50 to 500 | < 100 | –
15 | CC(=O)N1c2ccc(-c3cnn(C4CC4)c3)cc2N(C(=O)OC2CCCC2)C[C@@H]1C [Example I-23, (S)-cyclopentyl 4-acetyl-7-(1-cyclopropyl-1H-pyrazol-4-yl)-3-methyl-3,4-dihydroquinoxaline-1(2H)-carboxylate] | < 100 | 50 to 500 | < 100 | –
16 | CC(=O)N1c2ccc(-c3cnn(C4CCC4)c3)cc2N(C(=O)OC(C)C)C[C@@H]1C [Example I-24, (S)-isopropyl 4-acetyl-7-(1-cyclobutyl-1H-pyrazol-4-yl)-3-methyl-3,4-dihydroquinoxaline-1(2H)-carboxylate] | < 100 | 50 to 500 | 100 to 500 | –
17 | CC(=O)N1c2ccc(-c3cnn(C4CCC4)c3)cc2N(C(=O)OC2CCCC2)C[C@@H]1C [Example I-25, (S)-cyclopentyl 4-acetyl-7-(1-cyclobutyl-1H-pyrazol-4-yl)-3-methyl-3,4-dihydroquinoxaline-1(2H)-carboxylate] | < 100 | < 50 | < 100 | –
18 | CC(=O)N1c2ccc(-c3cnn(C4CC4)c3)cc2N(C(=O)OC2CC(F)(F)C2)C[C@@H]1C [Example I-26, (S)-3,3-difluorocyclobutyl 4-acetyl-7-(1-cyclopropyl-1H-pyrazol-4-yl)-3-methyl-3,4-dihydroquinoxaline-1(2H)-carboxylate] | 100 to 1000 | 50 to 500 | 100 to 500 | –
19 | CC(=O)N1c2ccc(-c3cnn(CCO)c3)cc2N(C(=O)OC2CC(F)(F)C2)C[C@@H]1C [Example I-27, (S)-3,3-difluorocyclobutyl 4-acetyl-7-(1-(2-hydroxyethyl)-1H-pyrazol-4-yl)-3-methyl-3,4-dihydroquinoxaline-1(2H)-carboxylate] | 100 to 1000 | 50 to 500 | 100 to 500 | –
20 | CC(=O)N1c2ccc(-c3cnn(CC(C)(C)O)c3)cc2N(C(=O)OC2CC(F)(F)C2)C[C@@H]1C [Example I-28, (S)-3,3-difluorocyclobutyl 4-acetyl-7-(1-(2-hydroxy-2-methylpropyl)-1H-pyrazol-4-yl)-3-methyl-3,4-dihydroquinoxaline-1(2H)-carboxylate] | 100 to 1000 | 50 to 500 | > 500 | –
21 | CC(=O)N1c2ccc(-c3ccc(N4CCCS4(=O)=O)cc3)cc2N(C(=O)OC2CC(F)(F)C2)C[C@@H]1C [Example I-29, 3,3-difluorocyclobutyl (3S)-4-acetyl-7-[4-(1,1-dioxo-1λ^6,2-thiazolidin-2-yl)phenyl]-3-methyl-1,2,3,4-tetrahydroquinoxaline-1-carboxylate] | 100 to 1000 | > 500 | > 500 | –
22 | CC(=O)N1c2ccc(-c3ccc(NS(C)(=O)=O)cc3)cc2N(C(=O)OC2CC(F)(F)C2)C[C@@H]1C [Example I-30, (S)-3,3-difluorocyclobutyl 4-acetyl-3-methyl-7-(4-(methylsulfonamido)phenyl)-3,4-dihydroquinoxaline-1(2H)-carboxylate] | 100 to 1000 | > 500 | > 500 | –
23 | CC(=O)N1c2ccc(-c3ccc(NS(C)(=O)=O)cc3)cc2N(C(=O)OC2CCC(F)(F)CC2)C[C@@H]1C [Example I-31, (S)-4,4-difluorocyclohexyl 4-acetyl-3-methyl-7-(4-(methylsulfonamido)phenyl)-3,4-dihydroquinoxaline-1(2H)-carboxylate] | 100 to 1000 | 50 to 500 | 100 to 500 | –
24 | COC(=O)N1c2ccc(-c3cnn(C4CC4)c3)cc2N(C(=O)OC2CCCC2)C[C@@H]1C [Example I-40, (S)-4-cyclopentyl 1-methyl 6-(1-cyclopropyl-1H-pyrazol-4-yl)-2-methyl-2,3-dihydroquinoxaline-1,4-dicarboxylate] | 100 to 1000 | 50 to 500 | – | 100 to 500
25 | COC(=O)N1c2ccc(-c3cnn(C4CC4)c3)cc2N(C(=O)C2CC2)C[C@@H]1C [Example I-42, (S)-methyl 4-(cyclopropanecarbonyl)-6-(1-cyclopropyl-1H-pyrazol-4-yl)-2-methyl-3,4-dihydroquinoxaline-1 (2H)-carboxylate] | 100 to 1000 | 50 to 500 | – | 100 to 500
